In patent US20140274782A1, “AFFINITY REAGENTS AND METHODS FOR DETECTION, PURIFICATION, AND PROTEOMIC ANALYSIS OF METHYLATED PROTEINS” (The Board of Trustees of the Leland Stanford Junior …, priority 2013, published 2014):

Tested on: 3×MBT domain of L3MBTL1
Test: SILAC proteomic pull-down 3×MBT vs 3×MBTD355N from 293T nuclear extract, LC-MS/MS
Type: binding, human
Details: SILAC ratio, 293T nuclear extract pull-down; * = protein identified in only one labeling experiment
Method: Protein pull-downs were performed as described above using 600 μg of nuclear extract prepared with isotopic labels as indicated. After eluting with glutathione, 3×MBT domain was removed by dialysis into high salt and rebinding to GSH-sepharose. Bound proteins were separated by SDS-PAGE and analyzed by in-gel tryptic digest followed by LC-MS/MS. Peptides were identified using MaxQuant version 1.2.2.5 (Cox and Mann (2008) Nat. Biotechnol. 26, 1367-1372) and candidate methylated peptides were verified by manual inspection.
For stable isotope labeling by amino acids in cell culture (SILAC) experiments HEK 293T cells were grown for at least six doublings in DMEM for SILAC supplemented with 10% dialyzed fetal bovine serum (FBS), 230 mg/L L-proline and either 100 mg/L each of L-lysine and L-arginine (“light” medium), D4-L-lysine and ^13C6-L-arginine (“medium” media), or ^13C6^15N2-L-lysine and ^13C6^15N4-L-arginine (Thermo Scientific). Heavy methyl labeling used DMEM without L-Methionine or L-Cysteine supplemented with D3^13C-L-Methionine (Sigma), L-Cysteine (Sigma) and 10% dialyzed FBS.
600 μg of nuclear extract was incubated overnight rotating at 4° C. with 20 μl packed 3×MBT or 3×MBTD355N beads in a total volume of 250 μL with binding buffer. Supernatant was removed and saved for use as a loading control. Beads were washed 4×5 minutes with 0.5 mL binding buffer. Protein was eluted by incubating in 20 μL elution buffer (10 mg/mL glutathione in 50 mM Tris pH 8.0) rotating at 4° C. for four hours. Elutions from 3×MBT and 3×MBTD355N were combined and dialyzed overnight at 4° C. against 10,000× volume of dissociation buffer (50 mM Tris pH 7.5, 750 mM NaCl) in a 0.1 mL Slide-A-Lyzer MINI Dialysis Device with 3.5K molecular weight cutoff (Thermo Scientific). 80 μL of GSH-Sepharose was prepared by washing briefly three times with 0.5 mL binding buffer. Dialyzed proteins were added to the GSH-Sepharose and incubated 4 hours rotating at 4° C. to deplete the GST-fusion domains. Supernatant was transferred to a fresh 1.5 mL tube. Proteins were separated by SDS-PAGE on a 10% polyacrylamide gel and stained using SilverQuest Silver Staining Kit (Life Technologies). Lanes were excised, residual 3×MBT band was removed, and gel was diced into 0.5 mm cubes. Gel pieces were destained and processed by in-gel digestion (Carlson et al. (2011) Science Signaling 4) with sequencing grade trypsin (Promega) and the peptide sample was dried completely in a vacuum centrifuge. To prepare a loading control, 2 μL each of light and heavy nuclear extract were combined, 6 μL of 8M urea was added, proteins were denatured by adding 2 μL of 100 mM dithiothreitol in digest buffer (50 mM ammonium bicarbonate) and heating to 60° C. for 1 hour, cysteine was alkylated by adding 2.2 μL 100 mg/mL iodoacetamide in digest buffer and incubating 1 hour at room temperature in darkness, and proteins were digested by adding 80 μL trypsin (Promega) at 12.5 ng/μL in digest buffer and incubating overnight at room temperature in darkness. Digestion was stopped by adding 10 μL of 10% formic acid.
Each experiment consisted of two sets of pull-downs: “forward” labeling with 3×MBT incubated with light nuclear extract and 3×MBTD355N with medium extract, and a second “reverse” labeling experiment with the label conditions swapped. Proteins were included in the results if they were quantified in both labeling directions. To determine reproducibility the entire experiment including the label swap was duplicated using independent protein preparations and a mass spectrometer at another institution.
For 3×MBT pull-down experiment #1 the gel lane was processed and peptides were loaded off-line onto a first dimension trap column (Waters Xbridge, C18, 10 μm particle size, 100 Å pore size, 5 cm packing length, 150 μm column i.d.). […]

## DNA ligase 1
  Protein Ratio 3xMBT/D355N: 10.7

## MCM7: protein with methylated lysine identified in 3xMBT pull-down
  Protein Ratio 3xMBT/D355N: 6.7

## MSH6: protein with methylated lysine identified in 3xMBT pull-down
  Protein Ratio 3xMBT/D355N: 1.2

## Protein Wiz
  Protein Ratio 3xMBT/D355N: 5.3

## RBM25: protein with methylated lysine identified in 3xMBT pull-down
  Protein Ratio 3xMBT/D355N: 7.7

## SSRP1: protein with methylated lysine identified in 3xMBT pull-down
  Protein Ratio 3xMBT/D355N: 14.6
